Source: PubChem BioAssay AID2060912 (Molecular Pharmacology Branch, DTP, NCI, 2025)

Test system: HUVEC/MSC spheroids viability
Assay: Human HUVEC/MSC cell line growth inhibition [KRAS2];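 on viability, T/C: percent of DMSO vehicle control luminescence so 100% = untreated viability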
Settings: for IC50: curve of first compound; for viability, T/C: stronger effect = lower value; active means viability on the fitted dose curve at most 10% of control; inactive means the rest
Excerpt: Multicellular complex tumor spheroid response to RAS pathway inhibitors in combination with a targeted agents in patient-derived cell lines with oncogenic KRAS variants from multiple cancer types
A high-throughput screen of multi-cell type tumor spheroids was designed to identify active combinations of targeted small molecules and KRAS pathway inhibitors. Complex spheroids include a stromal component modeled by human endothelial cells (HUVEC) and fibroblasts modeled by human mesenchymal stem cells (MSCs). The concentration ranges selected for each drug and investigational agent were based upon clinically achievable concentrations if the clinical Cmax of the agent was known. * [This particular assayID is a followup dataset requested by reviewers of the manuscript. It is a test of the HUVEC and MSC without the tumor cells, and was conducted using different drug plates and a different plate layout.]
Compounds. The drugs and investigational agents: BI-3406 (NSC825286), BAY-293 (NSC824723), batoprotafib (TNO155; NSC825523), sotorasib (AMG 510; NSC818433), MRTX1257 (NSC819558), elimusertib (BAY 1895344; NSC800525), molibresib (GSK525762; NSC774829), temuterkib (LY3214996; NSC803410), venetoclax (NSC766270), alisertib (NSC759677), olaparib (NSC753686), talazoparib (NSC767125), erdafitinib (NSC781556), ipatasertib (NSC767898), cabozantinib (NSC761068), nintedanib (NSC756659), abemaciclib (NSC768073), docetaxel (NSC628503), trametinib (NSC758246), and sapanisertib (NSC764658) were obtained from the National Cancer Institute (NCI) Developmental Therapeutics Program Chemical Repository. The FDA-approved anticancer drug set is available from the Developmental Therapeutics Program. […] The stock solutions were prepared in dimethyl sulfoxide (DMSO, Sigma-Aldrich, St. Louis, MO, cat. D2650) at 800-fold the tested concentration and stored at -70 degrees C prior to their use. All drugs and investigational agents were tested over a range starting from a high concentration at or near the clinical Cmax and decreasing in half-log increments. If the clinical Cmax for an agent had not been determined, the highest concentration tested was 10 microM.
Cell Culture. All cells were maintained in an incubator at 37 degrees C and 5% CO2 with 95% humidity. The PDC lines were cultured according to standard operating procedures established by the NCI PDMR (https://pdmr.cancer.gov/sops/default.htm). Briefly, all PDCs were thawed and cultured in Matrigel-coated flasks prepared with a working solution of 1X Ham's F-12 nutrient mix, without supplementation (Invitrogen, Waltham, MA, cat. 11765054), 100 U/mL penicillin-streptomycin (Invitrogen, cat. 15140122), and 2.5% Matrigel (Corning Inc., Corning, NY, cat. 354248) for the first three passages. All PDCs were cultured in complete DMEM/F-12 media containing advanced DMEM/F-12 (Invitrogen, cat. 12634028), 4.9% defined fetal bovine serum, heat inactivated (HyClone Laboratories Inc., Logan, UT, cat. SH30070.03HI), 389 ng/mL hydrocortisone (Sigma-Aldrich, cat. H4001), 9.7 ng/mL human EGF recombinant protein (Invitrogen, cat. PHG0313), 23.4 microg/mL adenine (Sigma-Aldrich, cat. A2786), 97.3 U/mL penicillin-streptomycin (Invitrogen, cat. 15140122), 1.9 mM L-glutamine (Invitrogen, cat. 25030081), and 9.7 microM Y-27632 dihydrochloride (Tocris Bioscience, Bristol, United Kingdom, cat. 1254). The PDCs were cultured in complete DMEM/F12 media without 9.7 microM Y-27632 dihydrochloride for at least two passages prior to the screen. The established cell line HOP-62 was cultured in RPMI 1640 medium, HEPES (Invitrogen, cat. 22400105) with 10% defined fetal bovine serum (HyClone Laboratories Inc., cat. SH30070.03) and 2 mM L-glutamine (Invitrogen, cat. 25030081). The pooled donor HUVEC were cultured in endothelial cell growth medium 2 (PromoCell, Heidelberg, Germany, cat. C-22011) and the hMSC were cultured in mesenchymal stem cell growth medium 2 (PromoCell, cat. C-28009). […]

CC(=O)OC12COC1CC(O)C1(C)C(=O)C(O)C3=C(C)C(OC(=O)C(O)C(NC(=O)OC(C)(C)C)c4ccccc4)CC(O)(C(OC(=O)c4ccccc4)C21)C3(C)C (centres undefined) + C=CC(=O)N1CCN(c2nc(=O)n(-c3c(C)ccnc3C(C)C)c3nc(-c4c(O)cccc4F)c(F)cc23)C(C)C1
inactive: viability, T/C (second compound 0.0316 µM, first compound 0.00949 µM) 57.6% | viability, T/C (second compound 0.0316 µM, first compound 0.03 µM) 67.8% | viability, T/C (second compound 0.0316 µM, first compound 0.0949 µM) 47.2% | viability, T/C (second compound 0.0316 µM, first compound 0.3 µM) 41.4% | viability, T/C (second compound 0.0316 µM, first compound 0.949 µM) 63% | viability, T/C (second compound 0.0316 µM, first compound 3 µM) 55.2% | viability, T/C (second compound 0.1 µM, first compound 0.00949 µM) 65.5% | viability, T/C (second compound 0.1 µM, first compound 0.03 µM) 52.8% | viability, T/C (second compound 0.1 µM, first compound 0.0949 µM) 57.4% | viability, T/C (second compound 0.1 µM, first compound 0.3 µM) 54.1% | viability, T/C (second compound 0.1 µM, first compound 0.949 µM) 57.3% | viability, T/C (second compound 0.1 µM, first compound 3 µM) 63.7% | viability, T/C (second compound 0.316 µM, first compound 0.00949 µM) 54.5% | viability, T/C (second compound 0.316 µM, first compound 0.03 µM) 58.9% | viability, T/C (second compound 0.316 µM, first compound 0.0949 µM) 61.6% | viability, T/C (second compound 0.316 µM, first compound 0.3 µM) 57.5% | viability, T/C (second compound 0.316 µM, first compound 0.949 µM) 65% | viability, T/C (second compound 0.316 µM, first compound 3 µM) 70.3% | viability, T/C (second compound 1 µM, first compound 0.00949 µM) 57.1% | viability, T/C (second compound 1 µM, first compound 0.03 µM) 61.4% | viability, T/C (second compound 1 µM, first compound 0.0949 µM) 59.2% | viability, T/C (second compound 1 µM, first compound 0.3 µM) 59.8% | viability, T/C (second compound 1 µM, first compound 0.949 µM) 62.9% | viability, T/C (second compound 1 µM, first compound 3 µM) 67.9% | viability, T/C (second compound 3.16 µM, first compound 0.00949 µM) 66% | viability, T/C (second compound 3.16 µM, first compound 0.03 µM) 82.4% | viability, T/C (second compound 3.16 µM, first compound 0.0949 µM) 64.8% | viability, T/C (second compound 3.16 µM, first compound 0.3 µM) 84.4% | viability, T/C (second compound 3.16 µM, first compound 0.949 µM) 83.4% | viability, T/C (second compound 3.16 µM, first compound 3 µM) 101% | viability, T/C (second compound 10 µM, first compound 0.00949 µM) 100% | viability, T/C (second compound 10 µM, first compound 0.03 µM) 113% | viability, T/C (second compound 10 µM, first compound 0.0949 µM) 122% | viability, T/C (second compound 10 µM, first compound 0.3 µM) 113% | viability, T/C (second compound 10 µM, first compound 0.949 µM) 111% | viability, T/C (second compound 10 µM, first compound 3 µM) 124%
> 3000 nM: IC50 (second compound 0.0316 µM) | IC50 (second compound 0.1 µM) | IC50 (second compound 0.316 µM) | IC50 (second compound 1 µM) | IC50 (second compound 3.16 µM) | IC50 (second compound 10 µM)

CN(C)C/C=C/C(=O)Nc1cc2c(Nc3ccc(F)c(Cl)c3)ncnc2cc1O[C@H]1CCOC1 + C=CC(=O)N1CCN(c2nc(=O)n(-c3c(C)ccnc3C(C)C)c3nc(-c4c(O)cccc4F)c(F)cc23)C(C)C1
inactive: viability, T/C (second compound 0.0316 µM, first compound 0.000316 µM) 98.4% | viability, T/C (second compound 0.0316 µM, first compound 0.001 µM) 115% | viability, T/C (second compound 0.0316 µM, first compound 0.00316 µM) 97% | viability, T/C (second compound 0.0316 µM, first compound 0.01 µM) 84.3% | viability, T/C (second compound 0.0316 µM, first compound 0.0316 µM) 91.4% | viability, T/C (second compound 0.0316 µM, first compound 0.1 µM) 88.9% | viability, T/C (second compound 0.1 µM, first compound 0.000316 µM) 116% | viability, T/C (second compound 0.1 µM, first compound 0.001 µM) 107% | viability, T/C (second compound 0.1 µM, first compound 0.00316 µM) 85.7% | viability, T/C (second compound 0.1 µM, first compound 0.01 µM) 80.1% | viability, T/C (second compound 0.1 µM, first compound 0.0316 µM) 111% | viability, T/C (second compound 0.1 µM, first compound 0.1 µM) 81% | viability, T/C (second compound 0.316 µM, first compound 0.000316 µM) 108% | viability, T/C (second compound 0.316 µM, first compound 0.001 µM) 109% | viability, T/C (second compound 0.316 µM, first compound 0.00316 µM) 87.3% | viability, T/C (second compound 0.316 µM, first compound 0.01 µM) 92.8% | viability, T/C (second compound 0.316 µM, first compound 0.0316 µM) 96.8% | viability, T/C (second compound 0.316 µM, first compound 0.1 µM) 100% | viability, T/C (second compound 1 µM, first compound 0.000316 µM) 107% | viability, T/C (second compound 1 µM, first compound 0.001 µM) 119% | viability, T/C (second compound 1 µM, first compound 0.00316 µM) 105% | viability, T/C (second compound 1 µM, first compound 0.01 µM) 124% | viability, T/C (second compound 1 µM, first compound 0.0316 µM) 112% | viability, T/C (second compound 1 µM, first compound 0.1 µM) 110% | viability, T/C (second compound 3.16 µM, first compound 0.000316 µM) 107% | viability, T/C (second compound 3.16 µM, first compound 0.001 µM) 129% | viability, T/C (second compound 3.16 µM, first compound 0.00316 µM) 114% | viability, T/C (second compound 3.16 µM, first compound 0.01 µM) 118% | viability, T/C (second compound 3.16 µM, first compound 0.0316 µM) 113% | viability, T/C (second compound 3.16 µM, first compound 0.1 µM) 131% | viability, T/C (second compound 10 µM, first compound 0.000316 µM) 128% | viability, T/C (second compound 10 µM, first compound 0.001 µM) 122% | viability, T/C (second compound 10 µM, first compound 0.00316 µM) 145% | viability, T/C (second compound 10 µM, first compound 0.01 µM) 97.3% | viability, T/C (second compound 10 µM, first compound 0.0316 µM) 124% | viability, T/C (second compound 10 µM, first compound 0.1 µM) 106%
> 100 nM: IC50 (second compound 0.0316 µM) | IC50 (second compound 0.1 µM) | IC50 (second compound 0.316 µM) | IC50 (second compound 1 µM) | IC50 (second compound 3.16 µM) | IC50 (second compound 10 µM)
